{
  "source": "patent US11932870B2",
  "about": "“Compositions and methods for immune cell modulation in adoptive immunotherapies” (Fate Therapeutics, Inc., priority 2016, dated 2024)",
  "key": {"Nalm-6-luc tumor cells": {"system": "Nalm-6-luc tumor cells", "assay": "In vivo tumor clearance by compound-treated CD19 CAR-T cells", "details": "NSG mice with Nalm-6-luc; 2.0×10^5 cryopreserved compound-treated CAR-T cells per animal (1:1 CD4:CD8); imaging; FIGS. 7 and 8", "method": "NSG mice were injected with Nalm-6-luc, a CD19+ human tumor line engineered to express firefly luciferase. CAR-T cells were generated from CD4+ and CD8+ T cells that were separately activated and expanded in vitro. The cells were transduced with the CAR-2 construct (FIG. 2) one day after activation and then replated into 24-well GREX plates with or without the compounds. Half the media was replaced every two days thereafter until harvest one week post-activation. Cells were cryopreserved and then thawed for use. NSG mice were infused with tumor cells followed […] by CAR-T transfer via retroorbital injection. Four days after IV. injection with Nalm-6-luc cells, mice were treated with 2.0×10^5 CAR-T cells per animal (1:1 CD4:CD8). The mice were imaged periodically to determine tumor burden."}, "viable CD8+ population": {"system": "viable CD8+ population", "assay": "T cell compound screen: CCR7+CD62L+ cells in the viable CD8+ population (flow cytometry)", "format": "cell-based, human", "details": "10 μM, about 6 days, anti-CD3/anti-CD28 beads; hit = Z-score > +2 for percent or absolute number CCR7+CD62L+ in CD8+", "from_the_text": "In Vitro T Cell Culture. Fresh leukopaks (AllCells, Alameda, CA) were obtained from healthy donors, from which T cells were negatively selected using the EasySep Human T cell Enrichment Kit (Stem Cell Technologies, Vancouver, Canada). The freshly isolated T cells were aliquoted and cryopreserved. On the day the screens were initiated, T cells were thawed and washed into X-Vivo 15 with 5% human AB serum, IL-2, pen/strep, and additional supplements. Cells were dispensed into flat-bottom 384-well plates at 5×10^5 cells/ml with anti-CD3/anti-CD28 beads. Individual compounds were added at a final concentration of 10 μM to each well from column 3 to column 22 of each plate. Positive and negative controls were added to additional wells. Cells were incubated for about 6 days at 37 degrees with 5% CO2.\nFlow Cytometry. On Day 6 of culture, cells were stained with a fixable viability marker and fluorophore-conjugated antibodies: CD3, CD4, CD8, CD45RA, CD45RO, CD62L, CCR7, CD27, and CD122 (BD Biosciences, San Jose, CA; and BioLegend, San Diego, CA). Fluorescent absolute counting beads (Spherotech, Lake Forest, IL) were added just prior to acquisition. Data acquisition was performed on a BD Fortessa X-20 (BD Biosciences) and data were analyzed using Treestar software (FlowJo, Ashland, OR) and Spotfire (Tibco, Boston, MA).\nThese cells are characterized by expression of CCR7 and CD62L. Therefore, cells co-expressing both of these identifying markers were evaluated. Within the viable CD4+ population and viable CD8+ population, the percent of cells co-expressing CCR7 and CD62L was determined. The expression of either CD62L or CCR7 on T cells, as indicative of the desired T cell subsets, have been described as having favorable functional characteristics for CAR-T cell therapy, and potentially other adoptive T cell therapies.\nThe number of events in each of these gates relative to the number of absolute counting beads in each sample was calculated, defining a measure of the absolute number of naïve, stem cell memory, or central memory T cells within the CD4+ and/or CD8+ populations. A z-Score relative to the screened compound samples within each 384-well plate was calculated for each of these four values: 1) percent CCR7+CD62L+in CD4+, 2) percent CCR7+CD62L+in CD8+, 3) absolute relative number of CCR7+CD62L+in CD4+, and 4) absolute number of CCR7+CD62L+in CD8+(FIGS. 1A and 1i). Z-scores were also calculated for the percent viability of all cells within each sample and the relative absolute number of cells within each sample. A “Z-Score” is a statistical measurement of a score's relationship to the mean in a group of scores. AZ-score of 0 means the score is the same as the mean. AZ-score can also be positive or negative, indicating whether it is above or below the mean and by how many standard deviations."}, "[1]": {"system": "CD8 T cells transduced with CAR Construct 1", "assay": "Tcm phenotype skewing of CAR-T cells (CD62L, CCR7, CD27 surface expression)", "format": "cell-based, human", "details": "flow cytometry day 8", "method": "Culturing cells in large-scale for phenotypic and exhaustion marker evaluation. Isolated CD8 T cells were activated in bulk on day 0 using anti-CD3/anti-CD28 beads in T cell media supplemented with IL-2. On day 1, cells were transduced with the CAR Construct and cell density was adjusted to 0.5×10^6/ml and 10^6 cells were seeded into 12-well plates in the presence of vehicle, TWS119, or DCC-2036. On day 4, cells were transferred into 6-well plates and 2 ml of T cell media was added to each well. On day 6 another 2 ml of media was added to each well. On day 8, CAR T cells were analyzed on a flow cytometer for surface expression of phenotypic markers (CD62L, CCR7, and CD27) and exhaustion markers (PD-1 and Tim-3).\nTo determine the effect of compound treatment on skewing towards a central memory phenotype, isolated CD8 T cells were activated in bulk on day 0 using anti-CD3/anti-CD28 beads in T cell media supplemented with IL-2. On day 1, cells were transduced with the CAR Construct 1 shown in FIG. 2 and cell density was adjusted to 0.5×10^6/ml and 10^6 cells were seeded into 12 well plates in the presence of vehicle (DMSO), TWS119 or DCC-2036 at the same concentrations. On day 4, cells were transferred into 6-well plates and 2 ml of media was added to each well. On day 6 another 2 ml of media was added to each well. On day 8, cells were analyzed on a flow cytometer for cell surface expression of CD27.\nThe expression of CD27 observed with vehicle treatment was defined as an MFI (mean fluorescence intensity) of 1 and the relative MFI of cells treated with compound was calculated."}, "[2]": {"system": "CD8 T cells transduced with the CAR-2 construct", "assay": "Larger-scale (24-well GREX) CAR-T culture: viability and expansion", "format": "cell-based, human", "details": "expanded with compound or vehicle for 6 days", "from_the_text": "The cells were transduced with the CAR-2 construct (FIG. 2) one day after activation and then replated into 24-well GREX plates with or without compounds. Half the media was replaced every two days thereafter until harvest one week post activation. Cells were activated and expanded in the presence of compound or vehicle for 6 days."}},
  "note": "Entries after “also recorded” stand apart in the source; their conditions may differ.",
  "data": [
    {"compound": "CNC(=O)c1cc(Oc2ccc(NC(=O)Nc3cc(C(C)(C)C)nn3-c3ccc4ncccc4c3)c(F)c2)ccn1", "note": "[DCC-2036, Rebastinib]", "values": [
      {"measurement": "tumor burden / tumor control", "setting": "Nalm-6-luc tumor cells", "value": "dramatically reduced tumor burden; also recorded: able to clear tumor from the majority of mice"},
      {"measurement": "CD8 Hit", "setting": "viable CD8+ population", "value": "CD8"},
      {"measurement": "increase in the frequency of CAR-T cells expressing both CD62L and CCR7", "setting": "[1]; relative to vehicle (DMSO), FIG. 4A", "value": 2.3, "unit": "fold"},
      {"measurement": "increase in the expression of the differentiation marker CD27 (relative MFI)", "setting": "[1]; relative to vehicle (MFI defined as 1), FIG. 4B", "value": 2.2, "unit": "fold"},
      {"measurement": "CAR-T cell viability", "setting": "[2]; FIG. 3A", "value": "improved; also recorded: maintaining viability"},
      {"measurement": "CAR-T cell expansion", "setting": "[2]; FIG. 3B", "value": "improved; also recorded: enhancing expansion"}
    ]}
  ]
}
